What was measured:
[1] = system: Y STRAND 3'-GAG CAU GGY' AAG GCC AGG (SEQ ID NO: 7); type: binding
[2] = system: nucleases; conditions: cited from earlier work

Row | Molecule | Tm, G-C [1] | delta Tm, G-A [1] | delta Tm, G-Bu [1] | delta Tm, G-G [1] | delta Tm, G-T [1] | nuclease resistance [2]
1 | Nc1cc2c(ncn2[C@@H]2O[C@H](CO)[C@@H](O)[C@H]2O)c(=O)[nH]1 [3-deazaguanosine] | 59 C | -2 C | -7 C | +1 C | -1 C | –
2 | poly(2'-chloro-2'-deoxycytidylic acid) | – | – | – | – | – | resistant to various nucleases
3 | poly(2'-chloro-2'-deoxyuridylic acid) | – | – | – | – | – | resistant to various nucleases

Reference: patent US6262241A, “Compound for detecting and modulating RNA activity and gene expression” (Isis Pharmaceuticals, Inc., priority 1995, dated 2001)
